Tests used:
TIE-2 = TIE-2 (Homo sapiens, UniProt Q02763); assay: Tie-2 kinase flashplate assay (phosphorylation of poly(Glu, Tyr) with 33P-ATP); assay type: biochemical; details: read-out: Inhibition of TIE-2 IC50
Method: The TIE-2 tests can be carried out, for example, analogously to the methods indicated in WO 02/44156.
The assay determines the inhibiting activity of the substances to be tested in the phosphorylation of the substrate poly(Glu, Tyr) by Tie-2 kinase in the presence of radioactive ^33P-ATP. The phosphorylated substrate binds to the surface of a “flashplate” microtitre plate during the incubation time. After removal of the reaction mixture, the microtitre plate is washed a number of times and the radioactivity on its surface is subsequently measured. An inhibiting effect of the substances to be measured results in lower radioactivity compared with an undisturbed enzymatic reaction.

RAF = assay: Inhibition of RAF; assay type: biochemical

Chain of TIE-2 (Q02763 23-1124, species assumed): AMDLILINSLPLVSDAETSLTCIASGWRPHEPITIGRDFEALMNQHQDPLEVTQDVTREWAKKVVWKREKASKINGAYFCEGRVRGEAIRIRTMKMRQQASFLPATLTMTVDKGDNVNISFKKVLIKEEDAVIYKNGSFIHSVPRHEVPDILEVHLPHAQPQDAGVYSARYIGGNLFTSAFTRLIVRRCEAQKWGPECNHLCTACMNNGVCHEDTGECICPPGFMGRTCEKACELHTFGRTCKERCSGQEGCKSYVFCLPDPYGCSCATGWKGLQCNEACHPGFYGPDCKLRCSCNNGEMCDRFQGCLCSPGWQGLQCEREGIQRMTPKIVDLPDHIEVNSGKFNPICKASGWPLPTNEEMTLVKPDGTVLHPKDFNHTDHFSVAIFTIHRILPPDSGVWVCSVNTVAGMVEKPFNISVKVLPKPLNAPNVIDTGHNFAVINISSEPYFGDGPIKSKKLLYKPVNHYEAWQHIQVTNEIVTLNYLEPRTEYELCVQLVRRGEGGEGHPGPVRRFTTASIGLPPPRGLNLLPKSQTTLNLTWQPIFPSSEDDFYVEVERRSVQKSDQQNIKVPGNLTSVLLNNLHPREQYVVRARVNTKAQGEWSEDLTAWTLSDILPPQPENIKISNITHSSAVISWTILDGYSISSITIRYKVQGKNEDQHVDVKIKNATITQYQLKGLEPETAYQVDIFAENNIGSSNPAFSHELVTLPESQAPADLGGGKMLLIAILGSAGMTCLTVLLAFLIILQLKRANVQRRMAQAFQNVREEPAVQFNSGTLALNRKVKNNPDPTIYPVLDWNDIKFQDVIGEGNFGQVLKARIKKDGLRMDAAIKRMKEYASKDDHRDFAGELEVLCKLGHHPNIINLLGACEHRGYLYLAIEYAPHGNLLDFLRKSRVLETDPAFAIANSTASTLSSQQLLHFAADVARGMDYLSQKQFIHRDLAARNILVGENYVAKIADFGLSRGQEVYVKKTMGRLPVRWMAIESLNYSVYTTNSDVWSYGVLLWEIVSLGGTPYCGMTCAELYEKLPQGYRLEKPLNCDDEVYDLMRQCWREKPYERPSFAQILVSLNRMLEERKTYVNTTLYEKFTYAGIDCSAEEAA

| IC50 (RAF) [µM] | Structure (SMILES) | other results |
| --- | --- | --- |
| – | c1cnn(-c2nc(NCc3ccc4c(c3)OCO4)c3c4c(sc3n2)CCCC4)c1 | IC50 (TIE-2): 0.15 µM |
| – | Cc1cc2c(NCc3ccc4c(c3)OCO4)nc(-n3ccnc3)nc2s1 [Example 2, 2-(imidazol-1-yl)-6-methyl-4-(3,4-methylenedioxybenzylamino)thieno[2,3-d]pyrimidine] | melting point: 248 to 250 °C |
| 5.3 | Cc1sc2nc(N3CCOCC3)nc(NCc3ccc4c(c3)OCO4)c2c1C | – |
| 4.3 | c1cc2c(cc1CNc1nc(N3CCOCC3)nc3sc4c(c13)CCCC4)OCO2 | – |

— patent US20080045529A1, “Use Of Thienopyrimidines” (MERCK PATENT GMBH, priority 2003, published 2008)
